Test results as given in PMC4326489, “Efficacy and pharmacokinetic evaluation of a novel anti-malarial compound (NP046) in a mouse model” (Malaria Journal, 2015).

How the values were obtained:
[1] = test system: Plasmodium berghei transfected with green fluorescence protein (strain ANKA); experiment: In vivo efficacy (four-day dosing) in P. berghei-infected mice, % parasitaemia by flow cytometry; design: species or system Plasmodium berghei in male C57BL/6 mice; conditions: day five post-infection; for % parasitaemia: once a day for four days, mean ± S.E.M; for % growth inhibition: relative to negative control (placebo)
Experimental: Plasmodium berghei transfected with green fluorescence protein (strain ANKA), a chloroquine-sensitive strain, was stored in liquid nitrogen. Parasites were thawed and administered intraperitoneally (IP) to infect two donor mice a week before the experiment commenced. […] Finally, each of the test animals received 200 μl of the P. berghei-infected RBCs (1×10^7 per 200 μl PBS) IP to infect them with the parasite. There were three animals per dose group, and each of them received 200 μl of NP046 in water orally and intravenously (volume adjusted relative to the weight of mouse) at their respective dose concentration as shown below:
The test compound was administered to the animals once a day for four days. […] Blood samples were collected via tail bleeding in tubes containing PBS on day 5, and % parasitaemia was determined with FACSCalibur™ using the software CellQuestPro [5].
Finally, the percentage parasite growth inhibition was calculated using the following equation [6]: [drawing 1]

[2] = Plasma protein binding by ultracentrifugation; format: in vitro ADME; conditions: read-out: PPB (plasma protein binding) (converted)
Experimental: In this study, since the NSB > 5%, ultracentrifugation was used to assess the PPB property of NP046 [for the methodology see Additional file 3]. […] Procedure for the determination of PPB by Ultracentrifugation (procedure was adopted from Barré et al., 1985; with a slight modification). Thaw plasma aliquots in a water bath at 22 °C. Centrifuge plasma aliquots at 2000 g for 5 minutes, and decant and pool the supernatant. Prepare plasma and PBS samples at a high concentration (1000 ng/ml), and low concentration (10 ng/ml) for all the test compounds under investigation. The PBS samples were used to determine the response of the unbound (or free) drug, and were not subjected to ultracentrifugation. Plasma samples were incubated at 37 °C in a water bath for 20minutes to allow samples to reach physiological temperature, and then the samples were aliquoted into BECKMAN Quick-Seal centrifuge tubes (13 ml). Ultracentrifuge plasma samples at 2 x 10^5 g for 6 hours at 37 °C using BECKMAN L8-[…] ultracentrifuge (80Ti). The supernatant was extracted, and its response was compared with that of the PBS extract after being analysed by the validated LC-MS/MS bioanalytical drug assay methods stated in chapters 8 and 9. PPB% was calculated using the equation: Where T = total drug concentration; and F = free drug concentration.

[3] = Metabolic stability in human liver microsomes; format: in vitro ADME; conditions: 0-60 minutes, read-out: in vitro intrinsic clearance
Experimental: (§1) Metabolism is an enzymatic process in which a drug is chemically modified into polar metabolites that can be more readily excreted from the body. Metabolism occurs mainly in the liver, and the intestine. The metabolic stability of NP046 was determined in human and mouse liver microsomes using a multiple-time-point method at 0, 5, 10, 30, and 60 minutes [for the methodology see Additional file 5].
(§2) Summary of the assay method for the determination of microsomal stability:
(§3) The assay method was adopted from Obach, 1999, Giuliano et al., 2005, and Naritomi et al., 2001, with a slight modification.
(§4) The liver microsome (human and mouse) was thawed at 37 °C, and diluted to 0.4 mg/ml in a preheated (at 37 °C) 0.1 M phosphate buffer.
(§5) The primary stock solutions (10 mM) of the controls and test compounds were diluted as follows: first in DMSO to obtain 400 µM solutions followed by dilution in phosphate buffer to 40 µM, and were vortex mixed well by vortexing at each step of dilution.
(§6) A reaction premix (in triplicate for each control and test compound) were prepared by mixing 15 µl of the 40 µM solution with 530 µl of 0.4 mg/ml microsome mixture in a premix plate, and mixed carefully using a plate shaker. […]
(§7) The intrinsic clearance (ml/min/kg) was calculated using the equation (Obach et al., 1997): […]

[4] = Metabolic stability in mouse liver microsomes; format: in vitro ADME; conditions: 0-60 minutes, read-out: in vitro intrinsic clearance
Experimental: as §1, §2, §3, §4, §5, §6, §7

[5] = Analyte stock solution stability; format: physicochemical; conditions: 100 days; for Analyte stock solution stability, % Reference: vs fresh
Experimental: NP046 was stable for 100 days in stock solutions of methanol and acetonitrile when stored at room temperature and -20 °C. It was stable in whole blood on bench for 3.3 hours while waiting for extraction, and was stable after three freeze-thaw cycles too.

[6] = Stability in whole blood (long term, freeze and thaw, on bench); format: in vitro ADME, human; conditions: for Long term stability, mean concentration found: -80°C, 92 days; for On bench stability, mean concentration found: on bench 3.3 hours
Experimental: Owing to the scarcity of mouse blood, the assay was developed and validated using human whole blood and then cross validated with mice whole blood to ensure that the same results were obtained in the same matrix of both species. NP046 was stable for 100 days in stock solutions of methanol and acetonitrile when stored at room temperature and -20 °C. It was stable in whole blood on bench for 3.3 hours while waiting for extraction, and was stable after three freeze-thaw cycles too.

[7] = whole blood, nominal High (799.9)
[8] = whole blood, nominal Low (4.999)

Oc1cc(CCCc2ccc(F)cc2)ccc1CN1CCCCC1 [NP046, 5-(3-(4-fluorophenyl)propyl)-2-(piperidin-1-ylmethyl)phenol]
% parasitaemia ([1]; 1 mg/kg IV): 10.2 ± 1.75%
% growth inhibition ([1]; 5 mg/kg IV): 87.4%
% parasitaemia ([1]; 5 mg/kg IV): 4.05 ± 0.12%
% growth inhibition ([1]; 10 mg/kg oral): 24.6%
% parasitaemia ([1]; 10 mg/kg oral): 24.3 ± 0.80%
% growth inhibition ([1]; 50 mg/kg oral): 47.3%
% parasitaemia ([1]; 50 mg/kg oral): 16.7 ± 3.34%
fraction unbound at 6 h, 10 ng/ml ([2]; at 10 ng/ml): 0.797
fraction unbound at 6 h, 1000 ng/ml ([2]; at 1000 ng/ml): 0.72
microsomal CLint at 0.99 µM [3]: 119 µL/min/mg
microsomal CLint at 0.99 µM [4]: 657 µL/min/mg
Analyte stock solution stability, % Reference ([5]; in acetonitrile, room temperature): 102.1%
Analyte stock solution stability, % Reference ([5]; in acetonitrile, ~ 5°C): 83.1%
Analyte stock solution stability, % Reference ([5]; in acetonitrile, ~ -20°C): 99.9%
Analyte stock solution stability, % Reference ([5]; in methanol, room temperature): 93.7%
Analyte stock solution stability, % Reference ([5]; in methanol, ~ 5°C): 87.8%
Analyte stock solution stability, % Reference ([5]; in methanol, ~ -20°C): 94.3%
stability in stock solutions ([5]; methanol and acetonitrile, room temperature and -20°C): stable
stability in whole blood on bench ([6]; 3.3 hours while waiting for extraction): stable
long term matrix stability ([6]; whole blood at -80°C for 92 days): stable
Long term stability, mean concentration found [6, 7]: 732. ng/ml
Long term stability, mean concentration found [6, 8]: 5.081 ng/mL
On bench stability, mean concentration found [6, 7]: 716.9 ng/mL
On bench stability, mean concentration found [6, 8]: 5.370 ng/mL
stability after freeze-thaw cycles ([6]; whole blood, three freeze-thaw cycles): stable
Freeze and thaw stability, mean concentration found ([6]; whole blood, three freeze-thaw cycles, nominal High (799.9)): 718.6 ng/mL
Freeze and thaw stability, mean concentration found ([6]; whole blood, three freeze-thaw cycles, nominal Low (4.999)): 5.037 ng/mL
